Reference: paper PMC2359919, “Molecular targeting of retinoic acid metabolism in neuroblastoma: the role of the CYP26 inhibitor R116010 in vitro and in vivo” (British Journal of Cancer, 2007)

Tests used:
[1] = system: SH-SY5Y, NGP, SH-EP and GIMEN cells; set-up: method as in Armstrong et al, 2005b; settings: SH-SY5Y neuroblastoma cells; ref Armstrong et al, 2005b; cited from earlier work
RA metabolism = test: Effect of R116010 on retinoid concentrations (plasma, liver, tumour) in an SH-SY5Y xenograft model, LC/MS; type: in vivo, CD-1 nude mice
Experimental: (§1) All in vivo experiments were approved by the relevant institutional animal welfare committees, and performed according to national law. Female athymic nude mice (CD-1 nu/nu, Charles River) used for antitumour studies were maintained and handled in isolators, under specific pathogen-free conditions, at 24°C with a 12 h light, 12 h dark cycle. Tumours were generated by implantation of SH-SY5Y cells subcutaneously (s.c.) into one flank of CD-1 nude mice (1 × 10^7 cells per animal).
(§2) Treatments began when the tumours were between 7 and 10 mm in length and breadth. Retinoids and R116010 were initially dissolved in DMSO before 10- or 20-fold dilutions in PBS, respectively. For pharmacokinetic studies, the animals were dosed with ATRA or 13cisRA (each 100 mg kg^−1) orally for 0.5, 2 and 6 h. For metabolism studies, animals were treated with R116010 orally at doses of 1.25 or 2.5 mg kg^−1 either immediately before the retinoid being studied, or up to three times (over 1–2 days) before dosing with the retinoid. At termination of experiments, animals were bled under terminal anaesthesia then killed by cervical dislocation. Plasma was immediately removed from the blood by centrifugation at 1000 g for 5 min and snap-frozen in liquid nitrogen in amber Eppendorfs. Tumour and liver samples were removed and snap-frozen, wrapped in foil, in liquid nitrogen.
(§3) Cell pellets obtained from retinoid incubations were re-suspended in 2 ml cell culture medium and disrupted by passing the samples several times through a syringe and hypodermic needle (25G × 1 inches, 0.5 mm × 25 mm; Terumo, Somerset, NJ, USA). Tumour and liver tissues were re-suspended in PBS and homogenised (T25 homogeniser, IKA Laboratories, Staufen, Germany). Retinoids were extracted as described previously ([Veal et al, 2002]; [Armstrong et al, 2005b]). Samples were reconstituted in 200 μl mobile phase A (n-hexane:dichloromethane:propan-2-ol, 400 : 1 : 0.27) and analysed by normal-phase HPLC as described previously ([Veal et al, 2002]). For LC/MS analysis, samples were reconstituted in 200 μl mobile phase A (50% acetonitrile, 50% (0.2%) acetic acid, v v^−1).
(§4) Resolution of retinoids was performed with a Luna C18(2) column (3 μm, 50 mm × 2 mm) using a Perkin Elmer LC (Beaconsfield, UK) system, consisting of a vacuum degasser, two series 200 pumps, a thermostatically controlled series 200 autosampler and a Waters 2487 UV absorbance detector. Retinoic isomers and metabolites were separated by gradient reversed-phase chromatography. An injection volume of 20 μl with a flow rate of 0.2 ml min^−1 was used with mobile phase A (50% acetonitrile, 50% (0.2%) acetic acid, v v^−1) and mobile phase B (acetonitrile, 0.1% acetic acid, v v^−1). Linear gradients were employed between the specified times as follows: 0, 100% A; 5 min, 100% A; 15 min, 100% B; 20 min, 100% B; 23 min, 100% A; 35 min, 100% A. An Applied Biosystems (Warrington, UK) API-2000 LC/MS/MS triple Q (quadrupole) mass spectrometer with electrospray ionisation source, controlled by Analyst software, was operated in single quadrupole negative mode for the detection of compounds.

[2] = system: SH-SY5Y, NGP, SH-EP and GIMEN cells; test: Intracellular all-trans-4-oxo-RA levels in neuroblastoma cells, LC/MS; type: cell-based, human
Experimental: (§5) SH-SY5Y, SH-EP (N- and S-type cells respectively derived from the parental line SK-N-SH), LAN6, IMR-32, NGP and GIMEN neuroblastoma cell lines were cultured routinely in RPMI 1640 medium containing fetal calf serum (10%) and L-glutamine (2 mM). Cells were grown at 37°C in a humidified incubator containing 5% CO2.
(§6) 13-cis-Retinoic acid and ATRA were dissolved in DMSO and diluted in cell culture medium to obtain final concentrations of 0.1–10 μM. The final concentration of DMSO in all cases was <0.2%. All experiments were performed in dim light and tubes containing retinoids were wrapped in aluminium foil.
as §3, §4

[3] = system: SH-SY5Y, NGP, SH-EP and GIMEN cells; test: Intracellular ATRA and 13cisRA concentrations in neuroblastoma cells, normal-phase HPLC; type: cell-based, human
Experimental: as §5, §6, §3
Quantification of retinoid levels was carried out by HPLC analysis using a Waters 2690 Separations Module and 996 Photodiode array detector (Waters Ltd, Elstree, UK) and Waters Millennium software for data acquisition. Cell volumes were determined as described previously ([Veal et al, 2002]), and intracellular RA concentrations were expressed in micromolars.

[4] = Effect of R116010 on retinoid concentrations (plasma, liver, tumour) in an SH-SY5Y xenograft model, LC/MS; type: in vivo, CD-1 nude mice; settings: female, CD-1 nu/nu (athymic nude), mouse, tumour (SH-SY5Y xenograft), oral; 13cisRA 100 mg kg^−1 alone; SH-SY5Y tumour; 6 h; read-out: Tumour 13cisRA levels, control animals
Experimental: as §1, §2, §3, §4

neuroblastoma cell lines = system: neuroblastoma cell lines; set-up: method as in Villablanca et al, 1995; settings: ref Villablanca et al, 1995; cited from earlier work
[5] = 13cisRA 100 mg kg^−1 with increasing doses of R116010, 6 h
[6] = ATRA-treated mice (100 mg kg^−1) with R116010, 6 h

For `C[C@@H]([C@H](c1ccc(Nc2nc3ccccc3s2)cc1)n1ccnc1)N(C)C` [R116010], the “Inhibition of ATRA metabolism” value [1] is given as “inhibits ATRA metabolism”, the “Increase in 13cisRA plasma concentration” value (RA metabolism; 13cisRA 100 mg kg^−1 after four doses of R116010 at 2.5 mg kg^−1 vs 13cisRA alone, 6 h) is given as no more than 4.6 fold and the “Effect on 13cisRA plasma concentrations” value (RA metabolism; 13cisRA 100 mg kg^−1 with increasing doses of R116010 (1.25; 2.5 mg kg^−1 x1, x2, x4) vs retinoid alone, 6 h) is given as “significant increases”. The “Effect on plasma 13cis-4-oxo-RA concentrations” value (RA metabolism; [5]) was “no significant dose-dependent effect”, the “Effect on plasma AT-4-oxo-RA concentrations” value (RA metabolism; [5]) was “apparent linear increase” and the “Effect on ATRA plasma concentrations” value (RA metabolism; 13cisRA 100 mg kg^−1 with increasing doses of R116010 vs retinoid alone, 6 h) was “significant increases”. The “Effect on liver ATRA levels” value (RA metabolism; 13cisRA 100 mg kg^−1 with one and two doses of 2.5 mg kg^−1 R116010, 6 h) was “increased slightly”, the “Tumour 13cisRA levels with R116010” value (RA metabolism; 13cisRA 100 mg kg^−1 with single dose R116010 at 2.5 mg kg^−1, SH-SY5Y tumour, 6 h) was 0.59 ± 0.07 µg/g and the “Effect on levels of the 4-oxo-RA metabolites in tumour” value (RA metabolism; 13cisRA or ATRA in combination with R116010 vs retinoid alone) was “no significant differences”. For the same compound, the “Effect on levels of ATRA in tumour samples” value (RA metabolism; 13cisRA-treated mice with R116010) was “not significantly affected”, the “Increase in plasma ATRA concentrations” value (RA metabolism; ATRA 100 mg kg^−1 after four doses of R116010 at 2.5 mg kg^−1 vs ATRA alone, 6 h) was no more than 2.3 fold and the “Effect on liver 13cisRA or ATRA levels” value (RA metabolism; ATRA 100 mg kg^−1 in combination with R116010, 6 h) was “No significant increases”. The “Effect on liver 13cis-4-oxo-RA and AT-4-oxo-RA levels” value (RA metabolism; ATRA 100 mg kg^−1 in combination with R116010 or after R116010 pretreatment, 6 h) was “significant decreases”, the “Effect on plasma 13cisRA concentrations” value (RA metabolism; [6]) was “marginal” and the “Effect on plasma AT-4-oxo-RA levels” value (RA metabolism; [6]) was “no effect”. For the same compound, the “Effect on liver 13cisRA levels” value (RA metabolism; R116010 before 13cisRA 100 mg kg^−1, 6 h) was “not associated with 13cisRA levels being different from control”, the “Effect on liver 13cis-4-oxo-RA and AT-4-oxo-RA concentrations” value (RA metabolism; R116010 before 13cisRA 100 mg kg^−1, all conditions, 6 h) was “significantly lower levels” and the “Effect on levels of retinoids in tumour tissue” value (RA metabolism; R116010 before ATRA) was “no significant differences”. The “Decrease in AT-4-oxo-RA levels” value ([2]; NGP cells, 10 μM 13cisRA with 10 μM R116010, 24 h) was 13.2 fold, the “Reduction in intracellular AT-4-oxo-RA levels” value ([2]; NGP cells, 10 μM ATRA with 10 μM R116010, 24 h) was 3.8 fold and the “Effect on AT-4-oxo-RA levels” value ([2]; SH-EP and GIMEN cells, 10 μM 13cisRA with 10 μM R116010, 24 h) was “no significant effect”. For the same compound, the “Decrease in AT-4-oxo-RA levels” value ([2]; SH-SY5Y cells, 10 μM 13cisRA with 10 μM R116010, 24 h) was 3.5 fold, the “Reduction in intracellular AT-4-oxo-RA levels” value ([2]; SH-SY5Y cells, 10 μM ATRA with 10 μM R116010, 24 h) was 3 fold and the “Effect on intracellular AT-4-oxo-RA levels” value ([2]; low CYP26-expressing cell lines (SH-EP, GIMEN), 10 μM ATRA with 10 μM R116010, 24 h) was “no significant effect”. For the same compound, the “Effect on ATRA concentrations after incubation with 13cisRA” value ([3]; NGP cells, 10 μM 13cisRA with 1 or 10 μM R116010, 24 h) was “similar, although nonsignificant, trend”, the “Effect on ATRA levels after incubation with 13cisRA” value ([3]; SH-EP or GIMEN cells, 10 μM 13cisRA with 1 or 10 μM R116010, 24 h) was “no observable effect” and the “Effect on intracellular ATRA concentrations after ATRA treatment” value ([3]; SH-EP or GIMEN cells, 10 μM ATRA with 1 or 10 μM R116010, 24 h) was “no effect”. For the same compound, the “Effect on intracellular ATRA concentrations after ATRA treatment” value ([3]; SH-SY5Y and NGP cells, 10 μM ATRA with 1 or 10 μM R116010, 24 h) was “significant increases”, the “Effect on ATRA concentrations after incubation with 13cisRA” value ([3]; SH-SY5Y cells, 10 μM 13cisRA with 1 or 10 μM R116010, 24 h) was “significant increase” and the “Effect on 13cisRA concentrations after incubation with 13cisRA” value ([3]; all four cell lines, 10 μM 13cisRA with 1 or 10 μM R116010, 24 h) was “no significant changes”. The “Effect on 13cisRA levels after incubation with ATRA” value ([3]; any of the cell lines, 10 μM ATRA with 1 or 10 μM R116010, 24 h) was “no effect”.
For `CC1=C(/C=C/C(C)=C/C=C/C(C)=C\C(=O)O)C(C)(C)CCC1` [13cisRA, 13-cis-retinoic acid], the concentration at 6 h [4] is listed as 220 ± 40 ng/g and the “Concentration effective against neuroblastoma cell lines in vitro” value (neuroblastoma cell lines) is listed as 5 µM.
